Test results reported in PMC8469748, “A Method for Rapid Screening, Expression, and Purification of Antimicrobial Peptides” (Microorganisms, 2021).
Entries after “also recorded” stand apart in the source; their conditions may differ.

Legend:
E. coli DH5α = assay: Inhibition zone test (agarose plate, Oxford cup); type: cell-based
Protocol: To measure AMP activity, the agarose plate method was employed. Microorganisms for inhibition testing were activated, 3–5 single colonies were picked and placed in liquid LB medium, cultured on a shaker at 37 °C for 6 h. Solid LB medium was melted by heating, 500 μL of liquid bacterial culture was added for every 100 mL of medium after cooling slightly, and the mixture was poured into a bacterial plate to solidify. Oxford cups were inserted into the solidified mixed bacterial plate, while being careful not to penetrate the medium completely, so as not to affect the penetration of the test liquid on the plate. Attention was paid to the spacing between the Oxford cups. Corresponding Oxford cups were marked and positive/negative controls (100 μL each) were added. Plates were incubated at 37 °C overnight to observe the antibacterial effects.
The E. coli DH5α mixed bacteria plate was prepared as described above. Two negative controls (HRV 3C Cleavage Buffer and 1 M NaCl) and a positive control (2 mg/mL ampicillin) were included.

E. coli = assay: MIC test (96-well plate, OD600); type: cell-based; settings: for minimum concentration that inhibited an increase in the OD600 of the bacterial solution (MIC): 96-well plate, final 128 to 0.25 mg/L; for inhibition activity against testing microorganisms (MIC test): AMP expressed and purified in E. coli, up to 128 mg/L
Protocol: When measuring the minimum inhibitory concentration (MIC) of the expressed and purified AMPs, we performed the test according to the Clinical and Laboratory Standards Association. Specifically, microorganisms to be tested were activated, and five colonies were picked and separately cultured into liquid medium on a shaker (220 rpm) at 37 °C until the absorbance at 600 nm (OD600) reached 0.13–0.17; thus, corresponding to a biomass concentration of ~1 × 10^8 colony-forming units (CFU)/mL. Samples for testing were diluted to 4 mM, and two-fold serial dilutions were performed in a 96-well plate, with the concentration ranging from 100 to 0.195 μM. Each dilution (50 μL) was performed in duplicate. Next, 50 μL of microbial culture containing ~1 × 10^6 CFU/mL was added to each well. After incubating overnight at 37 °C, OD600 was measured using a microplate spectrophotometer.
Figure 8 The schematic diagram of a 96-well plate measuring MIC (data taken from three parallel experiments). Horizontal direction is AMP 1, 2, 6, 13, 16 test rows; Vertical direction 1–10 is the final concentration of 128 mg/L to 0.25 mg/L of these AMPs, respectively; 11 is the negative control; 12 is a positive control, the 20 mg/L ampicillin.
Figure 13B is a schematic diagram of the 96-well plate MIC experiment (data are from three parallel replicates). The horizontal direction is AMP13 from P. pastoris, the vertical direction is the final peptide concentration (128 mg/L to 0.25 mg/L), 11 is the negative control and 12 is the positive control (20 mg/L ampicillin).

[1] = AMP expressed in E. coli, two-fold dilutions, overnight 37 °C, three parallel experiments
[2] = AMP expressed in E. coli and purified, mixed bacteria LB agar plate, Oxford cup, 100 μL liquid per cup, 37 °C overnight

CC1(C)S[C@@H]2[C@H](NC(=O)[C@H](N)c3ccccc3)C(=O)N2[C@H]1C(=O)O [ampicillin, reference compound]
Inhibition zone (E. coli DH5α; positive control, 2 mg/mL ampicillin, E. coli DH5α mixed bacteria plate, test of P. pastoris AMP13): there was an inhibition zone | Inhibition zone (E. coli DH5α; positive control, ampicillin 200 mg/L, 100 μL per Oxford cup, plates of E. coli-derived AMPs): there was an inhibition zone

DSHAKRHHGYKRKFHEKHHSHRGY [AMP16, antimicrobial peptide selected from the AMP library website, expressed as CL7 fusion in E. coli and released by HRV 3C protease]
minimum concentration that inhibited an increase in the OD600 of the bacterial solution (MIC) (E. coli; [1]): 64 mg/L | Inhibition zone (E. coli DH5α; [2]): there was an inhibition zone

GFCRCLCRRGVCRCICTR [AMP13, antimicrobial peptide selected from the AMP library website, expressed as CL7 fusion in E. coli and in P. pastoris, released by HRV 3C protease]
MIC (E. coli; AMP13 from P. pastoris, equated from 16 mg/L): 8.1 µM | minimum concentration that inhibited an increase in the OD600 of the bacterial solution (MIC) (E. coli; AMP13 produced by P. pastoris (PZEAP13), three parallel replicates): 16 mg/L | effective MIC (E. coli; AMP13 purified from P. pastoris, discussion): 16 mg/L | minimum concentration that inhibited an increase in the OD600 of the bacterial solution (MIC) (E. coli; [1]): 32 mg/L | Inhibition zone (E. coli DH5α; AMP13 produced by P. pastoris (PZEAP13), E. coli DH5α mixed bacteria plate, Oxford cup, 100 μL): showed inhibition activity; also recorded: clear circle of inhibition | Inhibition zone (E. coli DH5α; [2]): there was an inhibition zone

ILPWKWPWWPWRR [AMP2, antimicrobial peptide selected from the AMP library website, expressed as CL7 fusion in E. coli and released by HRV 3C protease]
inhibition activity against testing microorganisms (MIC test) (E. coli): no inhibition activity; also recorded: did not exhibit detectable antibacterial activity | minimum concentration that inhibited an increase in the OD600 of the bacterial solution (MIC) (E. coli; [1]): > 128 mg/L | Inhibition zone (E. coli DH5α; [2]): no inhibition zones

ITPATPFTPAIITEITAAVIA [AMP1, antimicrobial peptide selected from the AMP library website, expressed as CL7 fusion in E. coli and released by HRV 3C protease]
inhibition activity against testing microorganisms (MIC test) (E. coli): no inhibition activity; also recorded: did not exhibit detectable antibacterial activity | minimum concentration that inhibited an increase in the OD600 of the bacterial solution (MIC) (E. coli; [1]): 128 mg/L | Inhibition zone (E. coli DH5α; [2]): no inhibition zones

VFQFLGKIIHHVGNFVHGFSHVF [AMP6, antimicrobial peptide selected from the AMP library website, expressed as CL7 fusion in E. coli and released by HRV 3C protease]
inhibition activity against testing microorganisms (MIC test) (E. coli): no inhibition activity; also recorded: did not exhibit detectable antibacterial activity | minimum concentration that inhibited an increase in the OD600 of the bacterial solution (MIC) (E. coli; [1]): > 128 mg/L | Inhibition zone (E. coli DH5α; [2]): no inhibition zones
